Measurements from ChEMBL document CHEMBL1932921, “Synthesis and anticonvulsant evaluation of some new 2,3,8-trisubstituted-4(3H)-quinazoline derivatives” (Bioorg Med Chem Lett, 2012).
The source made the active and inactive calls. The rule behind the calls is not given here.

What was measured:
Mus musculus [1] = experiment: Anticonvulsant activity in Swiss albino mouse assessed as protection against maximal electroshock-induced seizure at 0.5 mmol/kg, ip administered 30 mins before challenge; format: functional
Mus musculus [2] = experiment: Anticonvulsant activity in Swiss albino mouse assessed as protection against picrotoxin-induced seizure at 0.5 mmol/kg, ip administered 30 mins before challenge; format: functional, organism-based
Mus musculus [3] = experiment: Anticonvulsant activity in Swiss albino mouse assessed as protection against PTZ-induced seizure at 0.5 mmol/kg, ip administered 30 mins before challenge; format: functional
Mus musculus [4] = experiment: Anticonvulsant activity in Swiss albino mouse assessed as protection against strychnine-induced seizure at 0.5 mmol/kg, ip administered 30 mins before challenge; format: functional, organism-based
[5] = Neurotoxicity in ip dosed Swiss albino mouse measured after 30 mins by chimney test; format: toxicity, organism-based; conditions: in vivo
[6] = Therapeutic index, ratio of LD50 for mortality to ED50 for anticonvulsant activity in Swiss albino mouse; format: organism-based; conditions: in vivo, read-out: TI
Mus musculus [7] = species on record: Mus musculus; experiment: Protective index, ratio of TD50 for neurotoxicity to ED50 for anticonvulsant activity in Swiss albino mouse; format: functional
[8] = Neurotoxicity in ip dosed Swiss albino mouse assessed as mortality; format: toxicity, organism-based; conditions: in vivo
Mus musculus [9] = experiment: Anticonvulsant activity in ip dosed Swiss albino mouse assessed as protection against PTZ-induced seizure compound administered 30 mins before challenge measured after 60 mins; format: functional
Mus musculus [10] = experiment: Anticonvulsant activity in Swiss albino mouse assessed as protection against maximal electroshock-induced seizure at 200 mg/kg, ip administered 30 mins before challenge; format: functional; conditions: route intraperitoneal
Mus musculus [11] = experiment: Anticonvulsant activity in Swiss albino mouse assessed as protection against PTZ-induced clonic seizure at 200 mg/kg, ip administered 30 mins before challenge; format: functional; conditions: route intraperitoneal
Mus musculus [12] = experiment: Anticonvulsant activity in Swiss albino mouse assessed as protection against maximal electroshock-induced seizure at 300 mg/kg, ip administered 30 mins before challenge; format: functional; conditions: route intraperitoneal
Mus musculus [13] = experiment: Anticonvulsant activity in Swiss albino mouse assessed as protection against PTZ-induced clonic seizure at 300 mg/kg, ip administered 30 mins before challenge; format: functional; conditions: route intraperitoneal

| Structure (SMILES) | inhibition in vivo at 500 µmol/kg (Mus musculus [1]) | inhibition (Mus musculus [2]) | inhibition in vivo at 500 µmol/kg (Mus musculus [3]) | inhibition (Mus musculus [4]) | TD50 at 0.5 h [5] | therapeutic index [6] | PI (Mus musculus [7]) | LD50 [8] | ED50 (Mus musculus [9]) | inhibition in vivo at 200 mg/kg (Mus musculus [10]) | inhibition in vivo at 200 mg/kg (Mus musculus [11]) | inhibition in vivo at 300 mg/kg (Mus musculus [12]) | inhibition in vivo at 300 mg/kg (Mus musculus [13]) |
| --- | --- | --- | --- | --- | --- | --- | --- | --- | --- | --- | --- | --- | --- |
| Cc1ccccc1-n1c(C)nc2c(OCC(=O)NNC(N)=O)cccc2c1=O | 0% | inactive | 50% | inactive |  |  |  |  |  |  |  |  |  |
| Cc1ccccc1-n1c(C)nc2c(OCC(=O)NN)cccc2c1=O | 50% | inactive | 100% | inactive | 267 mg/kg | 10.2 | 2.72 | 1000 mg/kg | 98 mg/kg |  |  |  |  |
| CSC(=S)NNC(=O)COc1cccc2c(=O)n(-c3ccccc3C)c(C)nc12 | 100% | inactive | 100% | inactive | 287 mg/kg | 3.34 | 1.91 | 501 mg/kg | 150 mg/kg |  |  |  |  |
| Cc1ccccc1-n1c(C)nc2c(OCC(=O)N/N=C\c3ccccc3F)cccc2c1=O | 50% | inactive | 66% | inactive |  |  |  |  |  |  |  |  |  |
| COc1ccccc1/C=N\NC(=O)COc1cccc2c(=O)n(-c3ccccc3C)c(C)nc12 | 0% | inactive | 33% | inactive |  |  |  |  |  |  |  |  |  |
| Cc1ccccc1-n1c(C)nc2ccccc2c1=O [METHAQUALONE] |  |  |  |  | 400 mg/kg | 2.5 | 2 | 500 mg/kg | 200 mg/kg | 100% | 100% |  |  |
| Cc1ccccc1-n1c(C)nc2c(OCC(=O)N/N=C\c3ccccc3)cccc2c1=O | 0% | inactive | 50% | inactive |  |  |  |  |  |  |  |  |  |
| Cc1ccccc1-n1c(C)nc2c(OCC(=O)NNC(=O)NN)cccc2c1=O | 0% | inactive | 50% | inactive |  |  |  |  |  |  |  |  |  |
| Cc1ccccc1-n1c(C)nc2c(OCC(=O)NCCO)cccc2c1=O | 0% | inactive | 50% | inactive |  |  |  |  |  |  |  |  |  |
| Cc1ccccc1-n1c(C)nc2c(OCC(=O)NNC(=S)NN)cccc2c1=O | 33% | inactive | 66% | inactive |  |  |  |  |  |  |  |  |  |
| CCCC(CCC)C(=O)[O-].[Na+] [VALPROATE SODIUM] |  |  |  |  | 450 mg/kg |  |  | 500 mg/kg | 300 mg/kg |  |  | 100% | 100% |
| CCOC(=O)NNC(=O)COc1cccc2c(=O)n(-c3ccccc3C)c(C)nc12 | 100% | inactive | 100% | inactive | 246 mg/kg | 1.53 | 2.61 | 418 mg/kg | 160 mg/kg |  |  |  |  |
